{"source": "paper PMC5218480", "about": "(PLoS ONE, 2017)", "test_system": "MV-4-11 cells", "assay": "Gene expression microarray analysis (Affymetrix PrimeView) and GSEA", "format": "cell-based, human", "set-up": "RFU PODN (11730768_x_at) / Fold change /veh PODN (11730768_x_at) / RFU LINC00158 (11744669_a_at) / Fold change /veh LINC00158 (11744669_a_at) / RFU DUSP10 (11751237_a_at) / Fold change /veh DUSP10 (11751237_a_at) / RFU ID3 (11757404_x_at) / Fold change /veh ID3 (11757404_x_at) / RFU PLEKHG5 (11737974_s_at) / Fold change /veh PLEKHG5 (11737974_s_at) / RFU LRRC4B (11730491_at) / Fold change /veh LRRC4B (11730491_at) / RFU GIMAP4 (11747438_a_at) / Fold change /veh GIMAP4 (11747438_a_at) / RFU KRT8 (11758183_x_at) / Fold change /veh KRT8 (11758183_x_at) / RFU CNN1 (11734310_a_at) / Fold change /veh CNN1 (11734310_a_at) / RFU VPS37D (11726825_at) / Fold change /veh VPS37D (11726825_at) / RFU C10orf10 (11716522_x_at) / Fold change /veh C10orf10 (11716522_x_at) / RFU KIR2DL2 /// KIR2DL4 /// KIR2DL5A /// KIR2DL5B /// KIR2DS1 /// KIR2DS2 /// KIR2DS3 /// KIR2DS4 /// KIR3DL3 /// KIR3DL3 /// KIR3DS1 (11738374_at) / Fold change /veh KIR2DL2 /// KIR2DL4 /// KIR2DL5A /// KIR2DL5B /// KIR2DS1 /// KIR2DS2 /// KIR2DS3 /// KIR2DS4 /// KIR3DL3 /// KIR3DL3 /// KIR3DS1 (11738374_at) / RFU C1QL1 (11718748_at) / Fold change /veh C1QL1 (11718748_at) / RFU TMPRSS4 (11747572_a_at) / Fold change /veh TMPRSS4 (11747572_a_at) / RFU HAMP (11756126_x_at) / Fold change /veh HAMP (11756126_x_at) / RFU RNFT2 (11725882_a_at) / Fold change /veh RNFT2 (11725882_a_at) / RFU NR4A2 (11747474_a_at) / Fold change /veh NR4A2 (11747474_a_at) / RFU ABCC12 (11746883_a_at) / Fold change /veh ABCC12 (11746883_a_at) / RFU TMEM136 (11760407_x_at) / Fold change /veh TMEM136 (11760407_x_at) / RFU CLDN22 /// WWC2 (11732394_at) / Fold change /veh CLDN22 /// WWC2 (11732394_at) / RFU HLA-DPB1 (11760878_x_at) / Fold change /veh HLA-DPB1 (11760878_x_at) / RFU SPINT1 (11716480_a_at) / Fold change /veh SPINT1 (11716480_a_at) / RFU GAP43 (11754022_s_at) / Fold change /veh GAP43 (11754022_s_at) / RFU A4GNT (11735810_at) / Fold change /veh A4GNT (11735810_at) / RFU PRB3 (11715151_x_at) / Fold change /veh PRB3 (11715151_x_at) / RFU TUBB4B (11761932_at) / Fold change /veh TUBB4B (11761932_at) / RFU CAPN14 (11732068_a_at) / Fold change /veh CAPN14 (11732068_a_at) / RFU TMCC2 (11721928_a_at) / Fold change /veh TMCC2 (11721928_a_at) / RFU IRGQ (11745062_a_at) / Fold change /veh IRGQ (11745062_a_at) / RFU FAM174B (11720279_a_at) / Fold change /veh FAM174B (11720279_a_at) / RFU TMPRSS4 (11748680_a_at) / Fold change /veh TMPRSS4 (11748680_a_at) / RFU FAM212B (11763350_a_at) / Fold change /veh FAM212B (11763350_a_at) / RFU PLEKHG5 (11743358_a_at) / Fold change /veh PLEKHG5 (11743358_a_at) / RFU ZSCAN30 (11745921_a_at) / Fold change /veh ZSCAN30 (11745921_a_at) / RFU CMKLR1 (11741424_a_at) / Fold change /veh CMKLR1 (11741424_a_at) / RFU LOC101060620 /// MAPK8IP1 (11723275_at) / Fold change /veh LOC101060620 /// MAPK8IP1 (11723275_at) / RFU SPTSSB (11747773_x_at) / Fold change /veh SPTSSB (11747773_x_at) / RFU PRSS12 (11739890_at) / Fold change /veh PRSS12 (11739890_at) / RFU BIN1 (11741810_x_at) / Fold change /veh BIN1 (11741810_x_at) / RFU WNT11 (11732464_a_at) / Fold change /veh WNT11 (11732464_a_at) / RFU C10orf10 (11716521_a_at) / Fold change /veh C10orf10 (11716521_a_at) / RFU C5orf56 (11738089_at) / Fold change /veh C5orf56 (11738089_at) / RFU CYB561 (11721691_x_at) / Fold change /veh CYB561 (11721691_x_at) / RFU ANKRD19P (11752326_a_at) / Fold change /veh ANKRD19P (11752326_a_at) / RFU OR2T12 /// OR2T33 /// OR2T8 (11738714_s_at) / Fold change /veh OR2T12 /// OR2T33 /// OR2T8 (11738714_s_at) / RFU VCAN (11748164_a_at) / Fold change /veh VCAN (11748164_a_at) / RFU JSRP1 (11732532_at) / Fold change /veh JSRP1 (11732532_at) / RFU KRTAP10-11 (11738290_x_at) / Fold change /veh KRTAP10-11 (11738290_x_at) / RFU MYO3A (11730013_a_at) / Fold change /veh MYO3A (11730013_a_at) / RFU EBF3 (11725865_a_at) / Fold change /veh EBF3 (11725865_a_at) / RFU CAMK2N1 (11719241_x_at) / Fold change /veh CAMK2N1 (11719241_x_at) / RFU C5orf56 (11738088_a_at) / Fold change /veh C5orf56 (11738088_a_at) / RFU OLFML3 (11715873_a_at) / Fold change /veh OLFML3 (11715873_a_at) / RFU LOC100653217 /// NTM (11731650_a_at) / Fold change /veh LOC100653217 /// NTM (11731650_a_at) / RFU MAPK11 (11762145_a_at) / Fold change /veh MAPK11 (11762145_a_at) / RFU FIZ1 (11724087_x_at) / Fold change /veh FIZ1 (11724087_x_at) / RFU OASL (11726364_x_at) / Fold change /veh OASL (11726364_x_at) / RFU SOX15 (11748057_x_at) / Fold change /veh SOX15 (11748057_x_at) / RFU CD79A (11719716_a_at) / Fold change /veh CD79A (11719716_a_at) / RFU HIST1H1D (11736915_at) / Fold change /veh HIST1H1D (11736915_at) / RFU CASKIN2 (11723855_a_at) / Fold change /veh CASKIN2 (11723855_a_at) / RFU LOC730098 (11760151_x_at) / Fold change /veh LOC730098 (11760151_x_at) / RFU OR4N2 (11742367_at) / Fold change /veh OR4N2 (11742367_at) / RFU PRRT2 (11749266_a_at) / Fold change /veh PRRT2 (11749266_a_at) / RFU SNX32 (11753110_a_at) / Fold change /veh SNX32 (11753110_a_at) / RFU CDHR5 (11726645_a_at) / Fold change /veh CDHR5 (11726645_a_at) / RFU RCAN1 (11760418_a_at) / Fold change /veh RCAN1 (11760418_a_at) / RFU FAM167A (11723789_a_at) / Fold change /veh FAM167A (11723789_a_at) / RFU FAM26E (11764081_at) / Fold change /veh FAM26E (11764081_at) / RFU ISYNA1 (11749810_s_at) / Fold change /veh ISYNA1 (11749810_s_at) / RFU ACY1 (11761880_at) / Fold change /veh ACY1 (11761880_at) / RFU 11764098_at / Fold change /veh 11764098_at / RFU SAMD14 (11745864_x_at) / Fold change /veh SAMD14 (11745864_x_at) / RFU NPB (11741838_a_at) / Fold change /veh NPB (11741838_a_at) / RFU TMPRSS6 (11731388_a_at) / Fold change /veh TMPRSS6 (11731388_a_at) / RFU KRTAP10-2 (11738614_at) / Fold change /veh KRTAP10-2 (11738614_at) / RFU ARHGAP8 /// PRR5-ARHGAP8 (11727945_x_at) / Fold change /veh ARHGAP8 /// PRR5-ARHGAP8 (11727945_x_at) / RFU KRTAP5-7 /// NADSYN1 (11734609_at) / Fold change /veh KRTAP5-7 /// NADSYN1 (11734609_at) / RFU RASL12 (11751679_a_at) / Fold change /veh RASL12 (11751679_a_at) / RFU CDKN2B (11736163_a_at) / Fold change /veh CDKN2B (11736163_a_at) / RFU PRF1 (11729649_at) / Fold change /veh PRF1 (11729649_at) / RFU, ZNF638 /// ZNF638-IT1 / Fold change vs veh, ZNF638 /// ZNF638-IT1 / RFU, PANK3 / Fold change vs veh, PANK3 / RFU, SH3YL1 / Fold change vs veh, SH3YL1 / RFU, ZEB2 / Fold change vs veh, ZEB2 / RFU, NRIP1 / Fold change vs veh, NRIP1 / RFU, PTTG1IP / Fold change vs veh, PTTG1IP / RFU, CAPN2 / Fold change vs veh, CAPN2 / RFU, MED14 / Fold change vs veh, MED14 / RFU, SNORA58 / Fold change vs veh, SNORA58 / RFU, C1orf63 / Fold change vs veh, C1orf63 / RFU, LRRFIP1 / Fold change vs veh, LRRFIP1 / RFU, NDUFAF7 / Fold change vs veh, NDUFAF7 / RFU, SLC12A2 / Fold change vs veh, SLC12A2 / RFU, IBTK / Fold change vs veh, IBTK / RFU, ESF1 / Fold change vs veh, ESF1 / Fold change vs veh, TMEM50B / RFU, TAOK1 / Fold change vs veh, TAOK1 / RFU, ACBD3 / Fold change vs veh, ACBD3 / RFU, TMA16 / Fold change vs veh, TMA16 / RFU, RWDD3 / Fold change vs veh, RWDD3 / RFU, BCAT1 / Fold change vs veh, BCAT1 / RFU, EDEM3 / Fold change vs veh, EDEM3 / RFU, TMEM33 / Fold change vs veh, TMEM33 / RFU, WDR75 / Fold change vs veh, WDR75 / RFU, AHCTF1 / Fold change vs veh, AHCTF1 / RFU, TFRC / Fold change vs veh, TFRC / RFU, ZDHHC17 / Fold change vs veh, ZDHHC17 / RFU, NOM1 / Fold change vs veh, NOM1 / RFU, ARL8B / Fold change vs veh, ARL8B / RFU, ZBTB11 / Fold change vs veh, ZBTB11 / RFU, TAMM41 / Fold change vs veh, TAMM41 / RFU, KIAA1704 /// LOC100996395 / Fold change vs veh, KIAA1704 /// LOC100996395 / RFU, ING1 / Fold change vs veh, ING1 / RFU, TRMT61B / Fold change vs veh, TRMT61B / RFU, FUBP3 / Fold change vs veh, FUBP3 / RFU, TP53 / Fold change vs veh, TP53 / RFU, TNKS2 / Fold change vs veh, TNKS2 / RFU, ZFP14 / Fold change vs veh, ZFP14 / RFU, ACTR2 / Fold change vs veh, ACTR2 / RFU, PPP3R1 / Fold change vs veh, PPP3R1 / RFU, PIK3R1 / Fold change vs veh, PIK3R1 / RFU, HNRNPA1 / Fold change vs veh, HNRNPA1 / RFU, RNF170 / Fold change vs veh, RNF170 / RFU, ZNF28 / Fold change vs veh, ZNF28 / RFU, RNGTT / Fold change vs veh, RNGTT / RFU, OGT / Fold change vs veh, OGT / RFU, BRD1 / Fold change vs veh, BRD1 / RFU, MARS / Fold change vs veh, MARS / RFU, ZNF655 / Fold change vs veh, ZNF655 / RFU, FAHD1 / Fold change vs veh, FAHD1 / RFU, BDP1 / Fold change vs veh, BDP1 / RFU, LRRCC1 / Fold change vs veh, LRRCC1 / RFU, ARID1A / Fold change vs veh, ARID1A / RFU, ZNF146 / Fold change vs veh, ZNF146 / RFU, ZNF330 / Fold change vs veh, ZNF330 / RFU, GPN3 / Fold change vs veh, GPN3 / RFU, C9orf123 / Fold change vs veh, C9orf123 / RFU, N4BP2L2 / Fold change vs veh, N4BP2L2 / RFU, ARFIP1 / Fold change vs veh, ARFIP1 / RFU, FAM179B / Fold change vs veh, FAM179B / RFU, BCL10 / Fold change vs veh, BCL10 / RFU, UHRF1BP1L / Fold change vs veh, UHRF1BP1L / RFU, BET1 / Fold change vs veh, BET1 / RFU, CNOT2 / Fold change vs veh, CNOT2 / RFU, ZNF268 / Fold change vs veh, ZNF268 / Fold change vs veh, ZNF507 / RFU, DGCR2 / Fold change vs veh, DGCR2 / RFU, WDSUB1 / Fold change vs veh, WDSUB1 / Fold change vs veh, HSP90B1 /// MIR3652 / RFU, ADSS / Fold change vs veh, ADSS / RFU, GK / Fold change vs veh, GK / RFU, ZNF148 / Fold change vs veh, ZNF148 / RFU, TAF9 / Fold change vs veh, TAF9 / RFU, SLC1A5 / Fold change vs veh, SLC1A5 / RFU, SLMO2 / Fold change vs veh, SLMO2 / RFU, ABCC4 / Fold change vs veh, ABCC4 / RFU, LOC101060439 /// RAP1B / Fold change vs veh, LOC101060439 /// RAP1B / RFU, RFX7 / Fold change vs veh, RFX7 / RFU, GTPBP10 / Fold change vs veh, GTPBP10 / RFU, CNEP1R1 / Fold change vs veh, CNEP1R1 / RFU, BIVM-ERCC5 /// ERCC5 / Fold change vs veh, BIVM-ERCC5 /// ERCC5 / RFU, ILF3 / Fold change vs veh, ILF3 / RFU 11762660_at / Fold change /veh 11762660_at / RFU VCAN (11757783_s_at) / Fold change /veh VCAN (11757783_s_at) / RFU DDX43 (11728927_at) / Fold change /veh DDX43 (11728927_at) / RFU KRT8 (11758188_x_at) / Fold change /veh KRT8 (11758188_x_at) / RFU NKD1 (11759106_at) / Fold change /veh NKD1 (11759106_at) / RFU SRD5A1 (11742802_a_at) / Fold change /veh SRD5A1 (11742802_a_at) / RFU TPSAB1 /// TPSB2 (11721975_s_at) / Fold change /veh TPSAB1 /// TPSB2 (11721975_s_at) / RFU GSTM3 (11746129_a_at) / Fold change /veh GSTM3 (11746129_a_at) / RFU IL23R (11737362_x_at) / Fold change /veh IL23R (11737362_x_at) / RFU TMEM51 (11727254_a_at) / Fold change /veh TMEM51 (11727254_a_at) / RFU PIWIL2 (11732686_x_at) / Fold change /veh PIWIL2 (11732686_x_at) / RFU ORM1 (11744905_x_at) / Fold change /veh ORM1 (11744905_x_at) / RFU CCDC152 (11743942_at) / Fold change /veh CCDC152 (11743942_at) / RFU ECM1 (11717891_a_at) / Fold change /veh ECM1 (11717891_a_at) / RFU IL23R (11748794_a_at) / Fold change /veh IL23R (11748794_a_at) / RFU TNFAIP8L3 (11732012_x_at) / Fold change /veh TNFAIP8L3 (11732012_x_at) / RFU MBOAT4 (11741988_at) / Fold change /veh MBOAT4 (11741988_at) / RFU 11764193_at / Fold change /veh 11764193_at / RFU TMEM53 (11763286_at) / Fold change /veh TMEM53 (11763286_at) / RFU MAGEB2 (11727129_at) / Fold change /veh MAGEB2 (11727129_at) / RFU TMEM200A (11744735_a_at) / Fold change /veh TMEM200A (11744735_a_at) / RFU CCDC152 (11751479_a_at) / Fold change /veh CCDC152 (11751479_a_at) / RFU FAM211A (11726209_a_at) / Fold change /veh FAM211A (11726209_a_at) / RFU RGS16 (11746705_a_at) / Fold change /veh RGS16 (11746705_a_at) / RFU VCAN (11755009_s_at) / Fold change /veh VCAN (11755009_s_at) / RFU RHOB (11743442_s_at) / Fold change /veh RHOB (11743442_s_at) / RFU RGS16 (11720943_a_at) / Fold change /veh RGS16 (11720943_a_at) / RFU RGS16 (11720944_at) / Fold change /veh RGS16 (11720944_at) / RFU, VPS4B / Fold change vs veh, VPS4B / RFU, CREB1 / Fold change vs veh, CREB1 / RFU, DNAJC13 / Fold change vs veh, DNAJC13 / RFU, GNAQ / Fold change vs veh, GNAQ / RFU, CDK5R1 / Fold change vs veh, CDK5R1 / RFU, ZRANB3 / Fold change vs veh, ZRANB3 / RFU, CUL4A / Fold change vs veh, CUL4A / RFU, CCNY / Fold change vs veh, CCNY / RFU, UFL1 / Fold change vs veh, UFL1 / RFU, COG3 / Fold change vs veh, COG3 / RFU, DIAPH2 / Fold change vs veh, DIAPH2 / RFU, SKA2 / Fold change vs veh, SKA2 / RFU, AFF3 / Fold change vs veh, AFF3 / RFU, LMF1 / Fold change vs veh, LMF1 / RFU, IPO11 / Fold change vs veh, IPO11 / RFU, DFFB / Fold change vs veh, DFFB / RFU, FOXP1 / Fold change vs veh, FOXP1 / RFU, CARD8 / Fold change vs veh, CARD8 / RFU, STRN3 / Fold change vs veh, STRN3 / RFU, ADK / Fold change vs veh, ADK / RFU, RASSF2 / Fold change vs veh, RASSF2 / RFU, WIPF1 / Fold change vs veh, WIPF1 / RFU, LARP1B / Fold change vs veh, LARP1B / RFU, RASA1 / Fold change vs veh, RASA1 / RFU, RB1 / Fold change vs veh, RB1 / RFU, PPFIA1 / Fold change vs veh, PPFIA1 / RFU, MAT2A / Fold change vs veh, MAT2A / RFU, CCT5 / Fold change vs veh, CCT5 / RFU, WDR92 / Fold change vs veh, WDR92 / RFU, CUX1 / Fold change vs veh, CUX1 / RFU, TTC7A / Fold change vs veh, TTC7A / RFU, TMEM135 / Fold change vs veh, TMEM135 / RFU, DEPTOR / Fold change vs veh, DEPTOR / RFU, CPM / Fold change vs veh, CPM / RFU, DNAJB6 / Fold change vs veh, DNAJB6 / RFU, CACNA2D3 / Fold change vs veh, CACNA2D3 / RFU, DTX4 / Fold change vs veh, DTX4 / RFU, TFCP2 / Fold change vs veh, TFCP2 / RFU, GMCL1 /// GMCL1P1 / Fold change vs veh, GMCL1 /// GMCL1P1 / RFU, AEBP2 / Fold change vs veh, AEBP2 / RFU, SNHG1 /// SNORD22 /// SNORD25 /// SNORD26 /// SNORD27 /// SNORD28 /// SNORD29 /// SNORD31 / Fold change vs veh, SNHG1 /// SNORD22 /// SNORD25 /// SNORD26 /// SNORD27 /// SNORD28 /// SNORD29 /// SNORD31 / Fold change (Aza/veh), C12orf56 (ProbeSet 11735607_a_at) / Fold change (ACY-1035/veh), C12orf56 (ProbeSet 11735607_a_at) / Fold change (Aza/veh), FGFR1OP (ProbeSet 11751329_s_at) / Fold change (ACY-1035/veh), FGFR1OP (ProbeSet 11751329_s_at) / Fold change (Aza/veh), VPS36 (ProbeSet 11739960_a_at) / Fold change (ACY-1035/veh), VPS36 (ProbeSet 11739960_a_at) / RFU SYPL1 (11715823_x_at) / Fold change /veh SYPL1 (11715823_x_at) / RFU IGFBP7 (11715501_s_at) / Fold change /veh IGFBP7 (11715501_s_at) / RFU REEP3 (11722064_at) / Fold change /veh REEP3 (11722064_at) / RFU IGLL1 (11728026_x_at) / Fold change /veh IGLL1 (11728026_x_at): dose or concentration left out as unconfirmed", "conditions": "ProbeSet 11743929_at; LIST B"}
{"compound": "Nc1ncn([C@@H]2O[C@H](CO)[C@@H](O)[C@H]2O)c(=O)n1", "note": "[azacitidine]", "values": [{"measurement": "RFU, UHRF1BP1L", "value": 257.64, "unit": "RFU"}]}
